From US20250213563A1, “SUBSTITUTED PYRIMIDIN-4(3H)-ONES FOR USE IN TREATING CANCER” (NAVIRE PHARMA, INC., priority 2021, published 2025)
Read-outs that look alike come from different tables or passages of the source.

Columns and labels:
pERK in PBMC = test: Phase 1/1B first-in-human study, PBMC pERK inhibition; assay type: in vivo
[1] = system: panel of 73 receptors and ion channels and 12 additional enzymes; test: Eurofins Cerep off-target panel; conditions: 10 μM
Description: In addition to the kinase and phosphatase screens, Compound (10b) (10 μM) was tested against a panel of 73 receptors and ion channels and 12 additional enzymes using the Eurofins Cerep platform. In this screen, inhibition or stimulation of >50% is considered to be a significant effect.

HCC827 = test: pERK protein levels (HTRF); assay type: cell-based; conditions: Homo sapiens; HCC827, EGFR^Ex19del
Description: The potency of Compound (10b) in a panel of human tumor cell lines with active MAPK signaling was assessed. Cell viability in a 3D culture system was assessed by measuring CellTiter-Glo (CTG) luminescence following 8 days of treatment with nine concentrations of Compound (10b). MAPK pathway signaling was assessed by measuring pERK protein levels and DUSP6 mRNA levels by homogeneous time resolved fluorescence (HTRF) and quantitative polymerase chain reaction (qPCR), respectively. […] These viability effects correlated with pERK inhibition (Table 2, FIG. 6B) and DUSP6 inhibition (FIG. 6C).

[2] = Single-dose pharmacokinetics, Cynomolgus monkey; assay type: in vivo, male); conditions: free base; for AUC(0-t): read-out: AUC0→24
Description: The pharmacokinetic (PK) parameters of Compound (10b) (freebase) were determined following single intravenous (IV) and oral (PO) administration in female CD-1 mouse, female C57BL/6 mouse (PO only), male Sprague Dawley rat, male Beagle dog, and male Cynomolgus monkey. Additional evaluation of the PK properties of Compound (10b) was obtained following single dose PO administration in female CD-1 mouse, male Sprague Dawley rat and male Beagle dog over a dose range spanning 10 to 300 mg/kg (mouse and rat) and 1 to 100 mg/kg (dog). The intravenous dose solutions were prepared in 20% DMSO-60% PEG400-20% water and the oral dose solutions as suspensions in 0.5% methylcellulose in water, unless otherwise noted. Plasma concentration profiles were generated from serial sampling in individual animals up to 24 hours post dose, except for the studies in mice where composite sampling methods were used (i.e. 3 sampling times per mouse; 9 mice per group). […] Exposures increased with increasing dose level across species, in a dose-proportional manner in mouse and dog, and in a greater than dose-proportional manner in rat (80× increase in AUC with a 30× increase in dosage).

[3] = male, cynomolgus monkey, plasma, IV 0.3 mg/kg
[4] = male, cynomolgus monkey, plasma, oral 1 mg/kg

Structure (SMILES): Cc1c(N2CCC3(CC2)CO[C@@H](C)[C@H]3N)nc(C)n(-c2cccc(Cl)c2Cl)c1=O (atropisomer, axis not shown; (Ra)) [Compound (10b), 6-((3S,4S)-4-amino-3-methyl-2-oxa-8-azaspiro[4.5]decan-8-yl)-3-(Ra)-(2,3-dichlorophenyl)-2,5-dimethylpyrimidin-4(3H)-one]
- inhibition at 550 mg (pERK in PBMC; Homo sapiens, PBMC, 550 mg dose level, 24 h post dose): 90%
- PBMC pERK inhibition (pERK in PBMC; cohort 5 (550 mg), 4 hours post dose): ~95%
- inhibition or stimulation of >50% [1]: No effects of this magnitude were observed
- IC50 (HCC827): 460 nM
- half-life [2, 3]: 6.44 h
- AUC(0-t) [2, 3]: 1.82 µM·h
- clearance ([2]; male, cynomolgus monkey, plasma, IV 0.3 mg/kg, read-out: Clp (converted)): 6 mL/min/kg
- Vd ([2]; male, cynomolgus monkey, plasma, IV 0.3 mg/kg, read-out: Vdss): 2.74 L/kg
- Cmax [2, 4]: 430 nM
- Tmax [2, 4]: 2.67 h
- AUC(0-t) [2, 4]: 4.52 µM·h
- F ([2]; oral 1 mg/kg): 52.3%
